Laboratory results taken from paper PMC3910101 (International journal of cancer. Journal international du …, 2012).

Target: Hsp90
Assay: SPR
Assay type: binding, Homo sapiens

Kd: 4.99 µM
Compound: CC(C)=CCCC1(C)C=Cc2c(c(C)cc3c2[nH]c2cc(O)ccc23)O1 (stereo not shown) [mahanine]
